Where two headings read alike, the source gives them in different places.
Tests used:
progesterone receptor = test: Progesterone receptor assay: inhibition of [3H]R5020 binding, uterine cytosol; set-up: species or system rat
Method: The manner in which the percentage of inhibition is determined is described in “Other Tests; E-Progesterone Receptor Assay”. Lower numbers are desirable.
[17α-methyl-^3H]-promegestone (R5020) (84 Ci/mmol) and the corresponding unlabeled compound were purchased from New England Nuclear (Lachine, Québec, Canada). All other chemicals were of analytical grade.
Stock solutions of the unlabeled steroids were kept at 4° C. in ethanol. The desired steroid solutions were then prepared by appropriate dilution in buffer B (10 mM Tris-HCl, 1.5 mM EDTA, 10 mM α-monothioglycerol, pH 7.4) containing 30% ethanol.
Female Sprague-Dawley rats weighing 200-300 g were obtained from Charles-River Inc. (St-Constant, Québec, Canada). The rats were gonadectomized under general anesthesia (Isoflurane) and killed by cervical dislocation 24 hours later. The uteri are rapidly removed, dissected free from adhering tissue and frozen on dry-ice. Tissues were kept at −80° C. until use.
All procedures were performed at 4° C. Tissues were pulverized frozen in dry ice with a Thermovac pulverizer. The samples were then homogenized in 10 vol (w/v) of buffer A (25 mM Tris-HCl, 1.5 mM EDTA, 10 mM α-monothioglycerol, 10% glycerol, 10 mM sodium molybdate, pH 7.4) using a Polytron PT-10 homogenizer (Brinkmann Instruments, Canada) at a setting of 5 for two periods of 10 sec, with intervals of 10 sec for cooling. The homogenate was then centrifuged at 105,000×g for 90 min. The supernatant was used immediately for assay.
Progesterone binding was measured using the dextran-coated charcoal adsorption technique. […] Each concentration was done in triplicate. Assay was ended with 300 μl of DCC (1% Norit A and 0.1% Dextran T-70 in Buffer B). After 10 min of incubation, tubes were centrifuged at 2,000×g for 10 min. and decanted in vials with 6 ml of BCS liquid scintillation (New England Nuclear, Dupont). The radioactivity was measured in a Beckman counter at a counting efficiency of 35%.

androgen receptor = target: T1, androgen receptor (Rattus norvegicus, UniProt P15207); test: Androgen receptor (AR) assay: inhibition of [3H]R1881 binding, prostate cytosol
T1 construct: from tissue; host or cells: ventral prostate cytosol of gonadectomized male Sprague-Dawley rats
T1 sequence (P15207 1-902): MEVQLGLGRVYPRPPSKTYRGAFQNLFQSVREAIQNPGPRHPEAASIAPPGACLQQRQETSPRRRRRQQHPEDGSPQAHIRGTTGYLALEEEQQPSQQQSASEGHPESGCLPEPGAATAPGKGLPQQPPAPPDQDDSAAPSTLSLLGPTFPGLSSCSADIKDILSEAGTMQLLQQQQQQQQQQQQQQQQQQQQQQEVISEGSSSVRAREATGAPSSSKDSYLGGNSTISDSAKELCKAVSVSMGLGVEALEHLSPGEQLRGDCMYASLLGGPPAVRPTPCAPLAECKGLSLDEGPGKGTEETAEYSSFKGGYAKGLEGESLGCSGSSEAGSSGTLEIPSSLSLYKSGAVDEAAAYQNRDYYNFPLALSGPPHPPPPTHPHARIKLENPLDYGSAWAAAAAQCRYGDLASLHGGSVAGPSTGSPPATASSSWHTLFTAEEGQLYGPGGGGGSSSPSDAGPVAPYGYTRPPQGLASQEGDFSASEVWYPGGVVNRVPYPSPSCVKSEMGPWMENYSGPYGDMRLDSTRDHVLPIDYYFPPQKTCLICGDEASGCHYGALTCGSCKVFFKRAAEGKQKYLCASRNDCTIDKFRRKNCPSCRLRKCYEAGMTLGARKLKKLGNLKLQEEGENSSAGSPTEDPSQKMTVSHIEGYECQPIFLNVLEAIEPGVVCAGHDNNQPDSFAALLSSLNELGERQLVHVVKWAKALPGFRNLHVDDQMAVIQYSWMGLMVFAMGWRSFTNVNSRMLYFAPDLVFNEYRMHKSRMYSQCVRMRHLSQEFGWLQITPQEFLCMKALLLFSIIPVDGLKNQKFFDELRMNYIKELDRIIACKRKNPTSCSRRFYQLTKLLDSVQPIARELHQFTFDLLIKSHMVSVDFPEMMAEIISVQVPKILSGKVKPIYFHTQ
Method: The manner in which the percentage of inhibition is determined is described in “Other Tests; D-Androgen Receptor (AR) Assays”. Lower numbers are desirable.
Male Sprague-Dawley rats (Crl: CD(SD)Br) weighing 200-300 g were obtained from Charles-River Inc. (St-Constant, Québec, Canada). The rats were gonadectomized under general anesthesia (Isoflurane) and killed by cervical dislocation 24 hours later. The ventral prostates were rapidly removed, dissected free from adhering tissue and frozen on dry-ice. Prostates were kept at −80° C. until assay.
All subsequent steps were performed at 0-4° C. Prostates were homogenized in 5 vol (wt/vol) of buffer A (25 mM Tris-HCl, 1.5 mM EDTA disodium salt, 10 mM α-monothioglycerol, 10% glycerol, and 10 mM sodium molybdate, pH 7.4), using a Polytron PT-10 homogenizer (Brinkman Instruments, Canada) at a setting of 5 for three periods of 10 sec, with intervals of 10 sec for cooling. The homogenate was then centrifuged at 105,000×g for 60 min in a Beckman L5-65 ultracentrifuge (Fullerton, Calif.).
Androgen binding was measured using the hydroxylapatite assay (HAP). In brief, the radioactive steroid [^3H]R1881 solubilized in ethanol was diluted into buffer A. Aliquots of prostate cytosol preparation (0.1 ml) were then incubated with 8 nM [^3H]R1881 (0.1 ml, ˜200,000 cpm) in the presence or absence of the indicated concentrations of unlabeled compounds (0.1 ml, prepared in buffer A containing 10% ethanol) for 16-18 h at 0-4° C. […] Unbound steroids were separated by incubation for 40 min at 0-4° C. with 0.3 ml HAP prepared in buffer P (50 mM, Tris-HCl, 10 mM KH2PO4, pH 7.4) as follows: 10 g HAP were washed with buffer P until the supernatant reached a pH of 7.4 and then following centrifugation and decantation of the supernatant, 37.5 ml of buffer P were added. After incubation with HAP and 10 minutes of centrifugation at 1,000×g, the pellet was washed 3 times with 1 ml buffer P. Thereafter, the radioactivity was extracted from the pellet by incubation at room temperature for 60 minutes with 1 ml EtOH. After centrifugation, the supernatant was decanted into a scintillation vial and the pellet was extracted again with ethanol.

| Structure (SMILES) | % Inhibition Progesterone Receptor E^−6 (progesterone receptor; Table 4′) | % Inhibition Progesterone Receptor E^−8 (progesterone receptor; Table 4′) | inhibition at 1 µM (androgen receptor; Table 4′, E^−6) | inhibition at 0.01 µM (androgen receptor; Table 4′, E^−8) | other results |
| --- | --- | --- | --- | --- | --- |
| COCCOc1cc2c(cc1C(=O)O)C1CCC3(C)C(CCC34CCC(C)(C)C(=O)O4)C1CC2 [EM-1405, 2-Carboxy-3-(2″-methoxyethyloxy)-1,3,5(10)-estratrien-17(R)-spiro-2′-(5′,5′-dimethyl-6′-oxo)tetrahydropyran] | 0% | 0% | 0% | 0% |  |
| CN1C(=O)C=C[C@]2(C)C3CC[C@@]4(C)C(CC[C@@]45CCCC(=O)O5)C3CCC12 (stereo partly shown) [EM-1122-CS] |  |  |  |  | % Inhibition Progesterone Receptor E^−6 (progesterone receptor; Table 5 column 14): 3%; % Inhibition Progesterone Receptor E^−8 (progesterone receptor; Table 5 column 14): 0%; inhibition at 1 µM (androgen receptor; Table 5 column 13, E^−6): 8%; inhibition at 0.01 µM (androgen receptor; Table 5 column 13, E^−8): 1% |
| COCCOc1ccc2c(c1)C(=O)CC1C2CCC2(C)C1CCC21CCC(C)(C)C(=O)O1 (stereo not shown) [EM-1408-CS] | 0% | 0% | 0% | 0% |  |
| COc1ccc2c(c1)C(=O)CC1C2CC[C@@]2(C)C1CC[C@@]21CCC(C)(C)C(=O)O1 (stereo partly shown) [EM-1394] | 4% | 2% | 0% | 0% |  |
| CC(=O)O[C@]1(C)C(=O)CCC2C3C=C(C)C4=CC(=O)C=C[C@]4(C)C3CC[C@@]21C (stereo partly shown) [CS-237] |  |  |  |  | % Inhibition Progesterone Receptor E^−6 (progesterone receptor): 0%; % Inhibition Progesterone Receptor E^−8 (progesterone receptor): 0%; inhibition at 1 µM (androgen receptor; read-out: % Inhibition Androgen Receptor E^−6): 11%; inhibition at 0.01 µM (androgen receptor; read-out: % Inhibition Androgen Receptor E^−8): 0% |
| CC1(C)CC[C@@]2(CCC3C4CCc5cc(C(=O)O)ccc5C4CC[C@@]32C)OC1=O (stereo partly drawn) [EM-1401, 3-Carboxy-1,3,5(10)-estratrien-17(R)-spiro-2′-(5′,5′-dimethyl-6′-oxo)tetrahydropyran] | 0% | 0% | 0% | 0% |  |
| CC1CCC2(CCC3C4CCc5ccccc5C4CCC32C)OC1=O (stereo not shown) [EM-1025] | 4% | 0% | 0% | 0% |  |
| CC12CCC3c4ccc(F)cc4CCC3C1CCC21CCCC(=O)O1 (stereo not shown) [EM-1170-CS] | 24% | 1% | 1% | 0% |  |
| CC1(C)CCC2(CCC3C4CCc5c(cc(Cl)c(O)c5Cl)C4CCC32C)OC1=O (stereo not shown) [EM-1391-CS] | 1% | 1% | 0% | 0% |  |
| CCC[C@@H]1CC2C3C=CC4=CC(=O)CC[C@]4(C)C3CC[C@]2(C)C1=O (stereo partly shown) [EM-1097] |  |  |  |  | % Inhibition Progesterone Receptor E^−6 (progesterone receptor): 0%; % Inhibition Progesterone Receptor E^−8 (progesterone receptor): 2%; inhibition at 1 µM (androgen receptor; E^−6): 5%; inhibition at 0.01 µM (androgen receptor; E^−8): 0% |

Reference: patent publication US6541463B1, “Inhibitors of type 5 and type 3 17β-hydroxysteroid dehydrogenase and methods for their use” (Endorecherche, Inc., priority 1998, dated 2003)
